The values that follow come from PubChem BioAssay AID463204 (Broad Institute, 2010).

Each structure is given as a SMILES string. Calls of active or inactive are those of the source.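 The calls were made as follows: active = AC50 no more than ten times the top concentration tested, that is within one log above it; inconclusive = flat curve fit with activity between 30% and 70%, or invalid poor fit; inactive = AC50 beyond ten times the top tested dose.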

For this test, the system named is S. cerevisiae Mot1-301 ts growth rescue, BacTiter-Glo ATP luminescence. Nature of the test: growth rescue of Mot1-301 ts yeast, confirmation, SUMOylation pathway inhibitor project, whole organism, S. cerevisiae, Mot1-301 ts mutant, luminescence, dose retest (AID 463204).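 Also: growth at restrictive 38.5 degrees C of Mot1-301 OY566 strain; actives raise luminescence by restoring growth of the ts mutant at high temperature.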

Take `COc1cccc(C(=O)N2CCN(S(=O)(=O)Cc3ccccc3)CC2)c1OC`: the AC50 (in general, the concentration giving half of the maximal activity seen) is > 42 µM (inactive).

Turning to `CC(C)(C)C(=O)Nc1ccc(C(=O)NCc2cccnc2)cc1`, the AC50 is > 42 µM (inactive). Turning to `COc1cccc(S(=O)(=O)Nc2cccc(C(=O)N3CCOCC3)c2)c1`, the AC50 was > 42 µM (inactive). The result for `Cc1cc(NC(=O)c2ccccc2F)n(C(C)(C)C)n1` reads > 42 µM (inactive). As for `COC(=O)C1=C(C)N(Cc2ccccc2)C(=S)N[C@H]1c1cccc(F)c1`, the AC50 is > 42 µM (inactive). As for `CCNc1ccccc(C(=O)/C=C/c2ccc3c(c2)OCO3)c1=O`, the figure is > 42 µM (inactive); as for `CCC(NC(=O)c1ccccc1NC(=O)c1ccco1)C(=O)NC1CCCCC1` (centres undefined), > 42 µM (inactive); as for `O=C(NNC(=O)C12CC3CC(CC(C3)C1)C2)c1ccccn1`, 21 µM.

With `COC(=O)c1[nH]c2cc(C)ccc2c1NC(=O)CN1CCN(c2ccccc2OC)CC1`, the AC50 was > 21 µM (inactive). Take `CC(C)(C)c1cc(NCCCn2ccnc2)n2ncc(-c3ccc(Cl)cc3)c2n1`: the AC50 is 5.57 µM.

`N/C(=N\N=C\c1ccc(O)cc1)c1nonc1N`: the AC50 was > 42 µM (inactive).

With `O=C1c2nccnc2C(=O)N1c1ccc(C(F)(F)F)cc1`, the AC50 was > 42 µM (inactive).

For the compound `Cc1ccc(S(=O)(=O)N(C)CC(=O)O/N=C(\N)c2ccccn2)cc1`, the AC50 is > 42 µM (inactive).

`COc1ccccc1N1CCN(C(=O)C(=O)N/N=C/c2ccccc2F)CC1`: the AC50 is > 42 µM (inactive).

As to `O=C(CSc1nnc(COc2ccccc2Cl)o1)NC(=O)NC1CCCC1`, the AC50 was > 42 µM (inactive). Turning to `CC1(C)CC(=O)c2cnc(NC(=O)CSc3nc4ccccc4o3)nc2C1`, the AC50 was > 42 µM (inactive). Take `COCCn1c(-c2ccc(Cl)cc2)cnc1SCC(=O)NCCc1ccc(OC)c(OC)c1`: the AC50 was > 42 µM (inactive).

Take `c1ccc(C(c2ccccc2)N2CCN(C(c3ccccn3)c3nnnn3C3CCCC3)CC2)cc1` (centres undefined): the AC50 is > 42 µM (inactive). As for `CCn1cc(CCCC(=O)NCc2ccccc2OC)c2ccccc21`, the AC50 was > 42 µM (inactive). As to `COc1cc(NC(=O)c2cc(Cl)ccc2Cl)ccc1-c1cc2ccccc2oc1=O`, the AC50 was > 42 µM (inactive). Consider `CCOc1ccccc1Nc1nnc(SCc2nnc(-c3cc(OC)c(OC)c(OC)c3)o2)s1`, for which the AC50 was > 42 µM (inactive).

As to `CCn1c(SCc2nc3ccccc3s2)nnc1-c1ccccc1`, the AC50 was > 42 µM (inactive). As for `O=C(CCCCCn1c(=O)[nH]c2ccsc2c1=O)NCc1ccc(F)cc1`, the figure is > 42 µM (inactive); as for `COc1cccc(-c2ocnc2C(=O)Nc2ccc3c(c2)CCC3)c1`, > 42 µM (inactive). Turning to `Cc1c(NC(C)c2cc(Cl)ccc2O)c(=O)n(-c2ccccc2)n1C` (centres undefined), the AC50 was > 42 µM (inactive). Regarding `O=C(COC(=O)c1c(F)cccc1F)c1ccc[nH]1`, the AC50 is > 42 µM (inactive). The result for `O=C(CC1(CC2=NS(=O)(=O)c3ccccc3N2)CCCC1)NCCc1ccccc1` reads > 42 µM (inactive). As to `COc1ccc2c(c1)[C@H]1[C@H](CO2)[C@H](c2ccccc2)[C@]2(C)C(=O)Nc3ccc(F)cc3C(=O)N12`, the AC50 was 5.38 µM. On to `COc1ccc(NC2CCCN(C(=O)CCc3scnc3C)C2)cc1` (centres undefined), for which the AC50 was > 42 µM (inactive). The result for `c1ccc(-c2cc3ccccc3cn2)cc1` reads 35 µM; that for `Cc1ccc(S(=O)(=O)N(C)c2ccc(OC(=O)CN3C(=O)NC4(CCCC4)C3=O)cc2)cc1C`, > 42 µM (inactive). In the case of `Cc1sc2nc(SCC(=O)NCCOCCO)n(C)c(=O)c2c1C`, the AC50 was > 42 µM (inactive).

With `CCc1ccccc1NC(=S)NNC(=O)c1ccccc1Cl`, the AC50 was > 42 µM (inactive). For `COc1ccc(S(=O)(=O)Nc2ccc(NC(C)=O)cc2)cc1OC`, the AC50 is > 42 µM (inactive). Regarding `Cc1sc(-n2c(C)cc(C=C3C(=O)NC(=O)NC3=O)c2C)c(C#N)c1C`, the AC50 is > 42 µM (inactive). As to `Cc1nc(N/N=C\c2ccc3c(c2)OCO3)sc1C`, the concentration at half-maximal activity (AC50) was 33.5 µM.

For `COc1cccc(C2C(C(C)=O)=C(O)C(=O)N2CCc2c[nH]c3ccccc23)c1` (centres undefined), the AC50 was > 42 µM (inactive).

As to `COc1cccc2[nH]c(=O)c(-c3ccccc3)cc12`, the AC50 was > 42 µM (inactive). In the case of `Cc1cc(C)cc(OCC(=O)Nc2ccc(N3CCN(C(=O)c4ccco4)CC3)cc2)c1`, the AC50 was > 42 µM (inactive).

As to `Cc1c(C(=O)Nc2cccc(F)c2)cnn1-c1ccccc1`, the AC50 was > 42 µM (inactive). As to `O=C(c1cccs1)N(C(=O)c1cccs1)c1ccc(Br)cn1`, the AC50 was 1.35 µM.

Regarding `C=CCOc1ccccc1CN1CCCC(CCC(=O)N(C)CCc2ccccn2)C1` (centres undefined), the AC50 was > 21 µM (inactive).

Turning to `Cc1nc2ccccc2n(CC(=O)Nc2cc(Cl)cc(Cl)c2)c1=O`, the AC50 is > 42 µM (inactive).

On to `C[C@H](NC(=O)OC(C)(C)C)C(=O)NCC1CCC(C(=O)N[C@@H](Cc2ccccc2)C(=O)O)CC1` (some centres undefined), for which the AC50 is > 42 µM (inactive). As for `Nc1ccc(C2(c3ccc(N)cc3)OC(=O)c3ccccc32)cc1`, the figure is > 42 µM (inactive); as for `O=C(c1cc(N2C(=O)C3C4CCC(C4)C3C2=O)ccc1Cl)N1CCN(c2ccccc2)CC1` (centres undefined), > 42 µM (inactive). With `O=C(c1ccc(F)cc1)C(CN1CCOCC1)c1ccccc1` (centres undefined), the AC50 was 1.3 µM. As for `Clc1cnc(Oc2ccc(Oc3ncc(Cl)cc3Cl)cc2)c(Cl)c1`, the figure is > 42 µM (inactive); as for `CCOP(=O)(OCC)C(NC(=O)c1cccc(C)c1)C(Cl)(Cl)Cl` (centres undefined), > 42 µM (inactive); as for `Cc1cccc2nc3ccccc3cc12`, > 42 µM (inactive).

Consider `CC1(C)C=C(c2ccc(O)cc2)CC(C)(C)N1`, for which the AC50 was > 42 µM (inactive). For `COC(=O)c1sccc1NC(=O)CC1C(=O)NCCN1C(=O)Nc1ccc(F)cc1F` (centres undefined), the AC50 is > 42 µM (inactive).

`CC1(C)Cc2c(c(N3CCCC3)nc3sc4c(N5CCN(CCO)CC5)ncnc4c23)CO1`: the AC50 is > 42 µM (inactive). As for `CC[C@@H]1C/C=C\Cc2ccccc2[C@H](C(=O)C[C@@H](O)CC(C)=O)OC1=O`, the half-maximal activity concentration (AC50) was 8.7 µM.

On to `CCC1(c2ccccc2)NC(=O)N(CC(=O)N(C)CC(=O)Nc2ccc(F)c(F)c2F)C1=O` (centres undefined), for which the AC50 is > 42 µM (inactive). As for `CC1CCN(CCCCOc2cccc(Br)c2)CC1`, the figure is > 42 µM (inactive). As for `CCN(CC)c1ccc(Nc2cc3n(c(=O)n2)CCc2cc(OC)c(OC)cc2-3)cc1`, the AC50 is > 42 µM (inactive).

With `Cc1ccc(NC(=O)/C=N/OCC(=O)NCc2ccccc2Cl)cc1`, the AC50 is > 42 µM (inactive). As to `CC(=O)Nc1cccc(C(=O)OCC(=O)NCc2ccc(F)cc2)c1`, the AC50 was > 42 µM (inactive).

Regarding `CCOC(=O)c1oc2cc(OC(C)=O)ccc2c(=O)c1-c1ccc(OC)c(OC)c1`, the AC50 is > 42 µM (inactive).

Consider `O=C(CSc1ncn[nH]1)Nc1cccc(S(=O)(=O)N2CCCCCC2)c1`, for which the AC50 is > 42 µM (inactive). As for `COC(=O)c1ccccc1SC(CC(=O)c1ccccc1)c1ccc(F)cc1` (centres undefined), the AC50 was > 42 µM (inactive). In the case of `O=C1CC(N(CCc2ccccc2)C(=S)Nc2ccccc2)C(=O)N1c1ccc(F)cc1` (centres undefined), the AC50 is > 42 µM (inactive). `CCCc1ccccc1OCCNC(C)=O`: the AC50 is > 42 µM (inactive).

On to `CCOC(=O)c1sc2ncnc(N3CCN(c4ccc(OC)cc4)CC3)c2c1C`, for which the AC50 is > 42 µM (inactive). As for `CCOC(=O)N1CCN(C(=O)c2ccc3ccccc3c2)CC1`, the AC50 is > 42 µM (inactive). Consider `N#CCCN(C(=O)COC(=O)c1ccc(S(=O)(=O)Nc2ccccc2)cc1)c1ccccc1`, for which the AC50 is > 42 µM (inactive). For `COc1ccccc1/C=C/C(=O)NC(=S)N1CCOCC1`, the AC50 was > 42 µM (inactive). Turning to `COc1ccc(CN2C(=O)C(=O)N(CC(N)=O)C2=O)cc1`, the AC50 is > 42 µM (inactive). For `O=C(CCN1CCc2ccccc2C1)Nc1ccc2c(c1)OCO2`, the AC50 is > 42 µM (inactive).

For the compound `COc1ccc(C(=O)CSc2nnc3ccc(-c4ccccn4)nn23)cc1`, the AC50 is > 42 µM (inactive). For `N#Cc1cccc(NC(=O)CSc2n[nH]c(=O)[nH]c2=O)c1`, the AC50 was > 42 µM (inactive).

`Cc1cccc(NC(=S)NCc2ccco2)c1C`: the AC50 was > 42 µM (inactive). `CC1CCN(CCCCOc2ccc(Cl)cc2)CC1`: the AC50 was > 42 µM (inactive). The result for `Oc1c(Br)cc(Br)cc1/C=N/N1CCN(Cc2ccccc2)CC1` reads 1.78 µM; that for `Cc1nnc(N=c2ssnc2Cl)o1`, 3.31 µM. `CCn1nccc1C(=O)Nc1ccccc1OC`: the AC50 is > 42 µM (inactive). As to `Cc1c(O)ccc(C(=O)CN2C(=O)c3ccccc3C2=O)c1O`, the AC50 is > 42 µM (inactive). On to `CC(c1ccccn1)N(CCN(C)C)C(=S)Nc1cccc(F)c1` (centres undefined), for which the AC50 was > 42 µM (inactive).

As for `COCC(=O)n1nc(-c2ccc(Cl)cc2)nc1NCc1ccc(F)cc1`, the AC50 was > 42 µM (inactive). As for `C=CCn1c(CCC)nc2ccccc21`, the AC50 is > 42 µM (inactive). For the compound `C=C(C)Cc1c(C)c(C#N)c2[nH]c3ccccc3n2c1=O`, the AC50 is > 42 µM (inactive). The result for `COC(=O)c1cc2occc2n1Cc1nc(-c2ccccc2C)oc1C` reads > 42 µM (inactive); that for `C/C=C\C=C/C(=O)Nc1cccc(C2=NOC3(C2)C[C@@H](C(N)=O)N(C(=O)c2ccccc2)C3)c1` (some centres undefined), > 42 µM (inactive); that for `CN(CC(=O)Nc1ccccc1Sc1ccccc1)Cc1nc2ccccc2c(=O)[nH]1`, > 42 µM (inactive). Turning to `COc1ccc(CN(C)S(=O)(=O)c2nnc(NC(=O)c3ccc(C)cc3)s2)cc1OC`, the AC50 is > 42 µM (inactive).

Regarding `COc1ccc(-c2cc(C(F)(F)F)n3ncc(C(=O)O)c3n2)cc1OC`, the AC50 was > 42 µM (inactive). Regarding `c1ccc(-c2cc3cc4c(cc3cn2)OCO4)cc1`, the AC50 is 11.7 µM. With `CC(C)n1c(O)c(N=Nc2ccccn2)c2ccccc21`, the AC50 is > 42 µM (inactive).
